Results published in patent US20040047823A1, “Use of ergothioneine and/or its derivatives as an anti-pollution agent” (priority 2003, published 2004).

System: human keratinocytes
Assay: Protective effect against ozone-induced peroxides in human keratinocytes (2,7-dichlorofluorescine diacetate / DCF fluorescence)
Assay type: cell-based
Details: for % fluorescence observed ±SEM, expressed as % relative to the unprotected controls: ergothioneine 1 mM (24 h pretreatment at 0.5 mM), n=4; for drop in induced stress: ergothioneine 1 mM
Protocol: In a first stage, human keratinocytes obtained from plastic surgeries, inoculated beforehand on D-3 into a 48-well dish at a rate of 25 000 cells/cm^2, are pretreated with ergothioneine dissolved in the culture medium for 24 hours, at a final concentration of 0.5 mM. A marker, 0,2,7-dichlorofluorescine diacetate, is then incorporated: after removing the ergothioneine solution and rinsing with PBS, the human keratinocytes are placed in contact for 30 minutes with a solution of 2,7-dichlorofluorescine diacetate (320 μM in phosphate-buffered saline PBS) at a rate of 500 μl per well, and are then rinsed again with PBS. The cells are then exposed to ozone: after placing the cells in contact with a fresh solution of ergothioneine in PBS at a concentration of 1 mM, at a rate of 100 μl per well, the cells are exposed to ozone in an incubator (37° C., humid atmosphere) with an ozone concentration of 10 ppm. The effects induced by the ozone are then measured by measuring the appearance of 2,7-dichloroflorescine (DCF: excitation at 485 nm and emission at 530 nm) after different exposure times: 0, 5, 10 and 20 minutes. Four independent experiments were performed and each measurement was repeated six times. The appearance of ozone-generated peroxides in the cell is reflected by an increase in the fluorescence. For each time, the fluorescence values of the unprotected controls are set at 100%. The results, in the presence of ergothioneine, are then expressed relative to this control value. A reduction in this value indicates a protective effect of the extract.

C[N+](C)(C)[C@@H](Cc1c[nH]c(=S)[nH]1)C(=O)[O-] [ergothioneine] was tested, and the “% fluorescence observed ±SEM, expressed as % relative to the unprotected controls” value (5 min. of contact with ozone 10 ppm) was 18.9 ± 2.4%, the “drop in induced stress” value (5 minutes of exposure to ozone 10 ppm) was 81.1% and the “% fluorescence observed ±SEM, expressed as % relative to the unprotected controls” value (10 min. of contact with ozone 10 ppm) was 25.9 ± 3.8%. For the same molecule, the “drop in induced stress” value (10 minutes of exposure to ozone 10 ppm) was 74.1%, the “% fluorescence observed ±SEM, expressed as % relative to the unprotected controls” value (20 min. of contact with ozone 10 ppm) was 51.4 ± 10.2% and the “drop in induced stress” value (20 minutes of exposure to ozone 10 ppm) was 48.6%.
